Experimental data from patent US12029755B2, “Carbon monoxide-based therapies and implantable devices for the treatment of vascular disease” (THE REGENTS OF THE UNIVERSITY OF MICHIGAN, priority 2017, dated 2024).

How the values were obtained:
[1] = test system: heme oxygenase-1 expression; experiment: HO-1 expression in sham-operated WT IVC by quantitative RT-PCR and immunoblotting; assay type: in vivo, mouse; conditions: CO exposure (inhaled CO or CORM), sham-operated WT IVC compared with normoxic controls
Description: Also, it was determined that CO exposure (inhaled CO or CORM) induces heme oxygenase-1 expression in sham-operated WT IVC compared with normoxic controls by quantitative RT-PCR and immunoblotting. Therefore, inhaled CO can trigger a venous anti-inflammatory and anti-thrombotic program. Also, whether CO or CORM treatment alone is sufficient to rescue HO-1^−/− mice from exaggerated early venous thrombosis was assessed. HO-1^−/− mice undergo venous stasis or stenosis thrombus induction, followed by CORM or inhaled CO treatment. Thrombus size was measured at the time of expected peak thrombus burden.

[2] = test system: WT mice; experiment: IVC ligation (stasis) model of venous thrombosis with inhaled CO exposure; assay type: in vivo, mouse; conditions: for Venous stasis thrombus burden / Vessel wall leukocyte infiltration: 7 d inhaled CO, 250 ppm for 1 hour twice daily, after IVC ligation, vs normoxia-treated controls
Description: Carbon monoxide was focused on for these studies because it is an end product from heme degradation by HO-1.
The effect of CO on large vein thrombogenesis was determined. WT mice undergo venous thrombus induction by stasis or stenosis, followed by exposure to inhaled CO (250 ppm) for one hour twice daily. […] Thrombus burden was assessed as in SA1 indirectly (ultrasound, FIG. 6) and directly (thrombus weight/length), at pre-determined time points after surgery (1 d, 2 d, 7 d, 10 d, 21 d).
The mouse makes an excellent animal model of stasis-induced venous thrombosis. Mice, weighing 20 to 30 g, were anesthetized with an inhalation mixture of isoflurane gas (1.5% to 2%) and oxygen (100%), placed in dorsal recumbency and aseptically prepped for surgery. A midline laparotomy was made, the small bowel was exteriorized from the body cavity and moved slightly to the left of the animal, and then the IVC was directly approached by careful blunt dissection. Blunt dissection was facilitated using a sterile applicator swab and extra delicate half curved tissue forceps. Care was taken in handling mouse tissue due to its fragility. Periodically, the exteriorized bowel was moistened with sterile saline to prevent its desiccation. For consistent thrombus formation (90 to 95%), ligation of the IVC with a 7-0 prolene below the renal veins, ligation of an occasional side venous branch and cauterization of a deep posterior branch was performed if indicated to account for normal variation in anatomy. The laparotomy incision was closed in a 2-layer fashion using a 5-0 nonreactive suture material and VetBond glue (3M). Harvest of the IVC was performed at pre-determined time points.
Inhaled Carbon monoxide exposure: Mice were randomly assigned to the normoxia or carbon monoxide exposure group prior to IVC ligation or stenosis surgery. The carbon monoxide group was exposed to 250 ppm CO at a flow rate of 10 L/min for 1 h twice daily. One cohort of mice received “pre-conditioning” with CO exposure 1 day prior to surgery. To achieve 75% O2, 100% O2 is delivered at a flow rate of 0.5 l/min into a custom-made 1.5-m^3 plastic chamber. Oxygen concentrations were monitored continuously with an oxygen analyzer (Neutronics, Exton, PA), gas lines were filtered with activated charcoal to remove excess ammonia, and calcium chloride used to maintain CO2 levels below 0.05%. A CO analyzer (Ntron model 1100; Neutronics, Exton, PA) were used to monitor CO levels continuously in the chamber.

[3] = test system: humans; conditions: dose up to 500 ppm, clinical trials; cited from earlier work
[4] = test system: C57B/6J mice; experiment: IVC flow-restriction (stenosis) model of venous thrombosis; assay type: in vivo, mouse
Description: To determine whether carbon monoxide-releasing molecules can be used as a therapeutic in prevention of flow-restriction mediated venous thrombosis (a model of venous thrombosis that mimics human venous clot, unlike IVC ligation), mice were injected with CORM-3 (Sigma SML0496, 10 mg/kg intraperitoneal injection) and subjected to IVC flow-restriction to induce thrombosis. Remarkably, CORM-3 treated mice developed no venous thrombus (0%, n=5) compared with controls (48%, n=21. P=0.001).
“Flow restriction” (Stenosis) thrombosis model: Partial IVC stenosis Model of Venous Thrombosis (FIG. 5) This model is a “flow-restriction” (or “stenosis) model in which the lumen is reduced by ˜90%. This model invokes disturbed flow at the stenosis site as a model for turbulent flow in venous valve pockets, where thrombi frequently develop. It also has applications to human venous “impingement” conditions, such as May Thurner syndrome. Mice, weighing 20 to 30 g, were anesthetized using an inhalation mixture of isoflurane gas (1.5%-2%) and oxygen (100%), placed in dorsal recumbence, and the IVC was approached directly via a midline laparotomy utilizing aseptic technique. A 7-0 Prolene suture (Ethicon, Inc. Somerville, NJ) was fastened around the IVC over a blunted 30-gauge needle (which serves as a spacer). […] Mice were humanely euthanized and thrombus formation assessed 2-7 days after laparotomy.

## [C-]#[O+] [CO, carbon monoxide]
[1]
  Heme oxygenase-1 expression in IVC: induces
[2]
  Venous stasis thrombus burden: reduced
  Vessel wall leukocyte infiltration: reduced
[2]; listed as carbon monoxide
  Venous stasis thrombus burden: profound reduction
  Vessel wall leukocyte infiltration: profound reduction
[2]; WT mice, thrombus induction by stasis or stenosis, inhaled CO 250 ppm one hour twice daily
  Thrombus size at 7 days: robust reduction
[3]
  Safety of inhaled CO dose: safe

## NCC(=O)O.[CH+]=O.[CH+]=O.[CH+]=O.[Cl][Ru] [CORM-3, tricarbonylchloro(glycinato)ruthenium (II)]
[4]; C57B/6J mice treated with CORM-3, VT induction by IVC flow-restriction
  Protection from venous thrombus compared with controls: protected from venous thrombus
[4]; CORM-3 10 mg/kg intraperitoneal injection, IVC flow-restriction, n=5, controls 48% (n=21)
  Frequency of clot (venous thrombus): 0%
